According to patent publication US4218472A, “Geminally disubstituted indene derivatives” (AB Kabi, priority 1977, dated 1980):
Read-outs that look alike come from different tables or passages of the source.

Experiments:
Format in all cases: cell-based
[1] = test system: rat vas deferens; assay: Effect on Rat Isolated Vas Deferens; details: for minimal effective concentration: read-out: threshold conc.; for Emax: read-out: max. effect, % of NA max.; for effect on rat vas deferens (in words): noradrenaline-like activity
Description: Effect on Rat Isolated Vas Deferens
Male albino rats weighing 250-350 g were anaesthetized with diethyl ether and then decapitated. The vas deferens was removed, freed from mesenteric attachments and then suspended in Kreb's bicarbonate solution (Hukovic, 1961). Threads were attached to both ends of the organ. The distal part was tied to a fixed pin in the organ bath and the proximal part to a force displacement transducer connected to a recording system. […] The load on the organ was adjusted to 0.5 g. The vas deferens was allowed to stabilize for 15 minutes before dose-response curves were obtained.
The technique for making cumulative dose-response curves in accordance with van Rossum (1963) was employed. The stimulating drug, noradrenaline (NA), was added to the bath in a manner to achieve geometrically increasing concentrations in the organ bath without washings in between. After each injection of NA the organ was allowed to contract until a state of equilibrium had been reached, and then the next dose of NA was added. This procedure was repeated until no further increase in contraction was obtained. The dosage of NA was adapted to give a concentration step in the bath of 1/2 log 10. The tested concentration interval was 10^-8 -10^-4 M, 3.10^-4 M plus maximum effect at 3 10^-5 and 10^-4 M. Compounds of formula I, identified as 2-12, and comparison compounds 13-15, were tested by the same technique. The compounds conform to the formula below except where indicated for other values of R^1, R^2 and R^3.

[2] = test system: urethra strip (cat); assay: Effect on urethra strip of cat; details: Felis catus, isometric tension, Tyrode solution 37° C., pH 7.5
Experimental: (§1) Effect on urethra strip of cat and aortic strip of rabbit Adult male and female cats weighing 2-5 kg were used. The animals were anaesthetized with pentobarbital, 30-50 mg/kg intraperitoneally. An abdominal incision was made and the bladder and urethra were dissected free and cut. The bladder and urethra were placed in Tyrode solution of room temperature. Care was taken to keep the tissue moist during the preparation. The bladder was cut away and the urethra was cut longitudinally. Segments of 2-3 mm width were mounted in an organ-bath with Tyrode solution at 37° C. and connected to a strain gauge transducer so that the isometric tension could be recorded. The preparation was maintained at pH 7.5 by bubbling a mixture of 93.5 volume-% O2 and 6.5 volume-% CO2 through the solution. This experimental set up thus allowed the recording of circular muscle activity as isometric tension changes. The initial tension was set at approximately 0.5 g. After mounting, the preparation was allowed 1 hour for acclimatization before starting the experiment. All recordings were made from the base line. The drugs were added directly to the organ-baths and cumulative dose-response curves were recorded. Noradrenaline has consistently been used as a reference drug for agonistic action. The substances tested as agonists were noradrenaline bitartrate (NA) and the above compound No. 3. […]

[3] = test system: aortic strip (rabbit); assay: Effect on aortic strip of rabbit; details: Oryctolagus cuniculus
Experimental: as §1

[4] = rat isolated vas deferens, contraction relative to noradrenaline maximum
[5] = rat isolated vas deferens, cumulative dose-response, 31° C.
[6] = Rattus norvegicus, rat isolated vas deferens, cumulative dose-response, 31° C.

Compound	minimal effective concentration [1, 6] [µM]	Emax [1, 4] [%]	EC50 [1, 5] [µM]	also measured
2-Isopropylamino-1-[spiro(cyclopentane-1,1'-indene)-3'-yl]ethanol [Example 12]	–	–	–	max. effect, % of NA max. [1, 4]: 35%
2-Pyrrolidino-1-[spiro)cyclopentane-1,1'-indene)-3'-yl]-ethanol [Example 5]	–	–	–	max. effect, % of NA max. [1, 4]: 50%; threshold conc. [1, 5]: 10^-5 - 10^-4 M
2-tert.-Butylamino-1-[spiro(cyclopentane-1,1'-indene)-3'-yl]ethanol [Example 11]	–	–	–	max. effect, % of NA max. [1, 4]: 90%
CNCC(O)C1=CC2(CCCC2)c2ccccc21 (racemic) [No. 3, 2-Methylamino-1-[spiro(cyclopentane-1,1'-indene)-3'-yl]ethanol]	0.03	100	0.15	EC50 [2]: 0.69 µM; EC50 [3]: 0.045 µM
NC[C@H](O)c1ccc(O)c(O)c1 [No. 1, noradrenaline, reference compound]	1	100	30	EC50 [2]: 27 µM; EC50 [3]: 0.18 µM
NCC(O)C1=CC2(CCCC2)c2ccccc21 (stereo not drawn) [No. 2, 2-Amino-1-[spiro(cyclopentane-1,1'-indene)-3'-yl]ethanol]	0.1	100	40	–
CCNCC(O)C1=CC2(CCCC2)c2ccccc21 (stereo not drawn) [No. 4, 2-Ethylamino-1-[spiro(cyclopentane-1,1'-indene)-3'-yl]ethanol]	0.5	85	1.5	–
CC(C)NCC(O)C1=CC2(CCCC2)c2ccccc21 (stereo not drawn) [No. 6]	–	90	4	–
NCC(O)C1=CC2(CCC2)c2ccccc21 (stereo not drawn) [No. 7]	–	120	15	–
CC1(C)C=C(C(O)CN)c2ccccc21 (stereo not drawn) [No. 8, 2-Amino-1-(1,1-dimethylindene-3-yl)ethanol]	0.3	100	2	–
NCC(O)C1=CC2(CCCCC2)c2ccccc21 (stereo not drawn) [No. 9, 2-Amino-1-[spiro(cyclohexane-1,1'-indene)-3'-yl]ethanol]	3	70	15	–
COc1ccc2c(c1)C(C(O)CN)=CC21CCCC1 (stereo not drawn) [No. 10, 2-Amino-1-[5'-methoxyspiro(cyclopentane-1,1'-indene)-3'-yl]-ethanol]	5	65	50	–
CN(C)CC(=O)C1=CC2(CCCC2)c2ccccc21 [No. 13, reference compound]	–	0	–	effect on rat vas deferens (in words) [1]: inactive
CNCC(O)C1CC2(CCCC2)c2ccccc21 (stereo not drawn) [No. 14, reference compound]	–	0	–	effect on rat vas deferens (in words) [1]: effect disappears
CNCCC1=CC2(CCCC2)c2ccccc21 [No. 15, reference compound]	–	–	–	Emax ([1]; Rattus norvegicus): 0%; effect on rat vas deferens (in words) [1]: effect disappears
